According to PMC6649662, “A molecular basis of human T cell receptor autoreactivity toward self-phospholipids” (Science immunology, 2017):

What was measured:
CD1b (CD1b-β2m) [1] = target: T1, CD1b (CD1b-β2m) (Homo sapiens, UniProt P29016); assay: X-ray crystal structure; details: antigen-binding cleft, with scaffold lipids; weak density for head group
T1 construct: soluble, transmembrane-truncated CD1b with β2m; from HEK 293S GnTI- or Trichoplusia ni High Five cells; lipid-loaded and purified; with Beta-2-microglobulin

CD1b (CD1b-β2m) [2] = target: T1, CD1b (CD1b-β2m); assay: lipid loading, isoelectric focusing shift and anion exchange purification; assay type: binding; details: loaded in vitro

CCCCCCCC/C=C\CCCCCCCC(=O)O[C@H](COC(=O)CCCCCCCCCCCCCCC)COP(=O)(O)O [PA, phosphatidic acid]
X-ray crystal structure (CD1b (CD1b-β2m) [1]): structures of the PG90 TCR and the CD1b-PS and CD1b- PA complexes

CCCCCCCC/C=C\CCCCCCCC(=O)O[C@H](COC(=O)CCCCCCCCCCCCCCC)COP(=O)(O)OCCN [PE, phosphatidylethanolamine]
lipid loading, isoelectric focusing shift and anion exchange purification (CD1b (CD1b-β2m) [2]): phospholipids are loaded into CD1b at high occupancy and purified to homogeneity

CCCCCCCC/C=C\CCCCCCCC(=O)O[C@H](COC(=O)CCCCCCCCCCCCCCC)COP(=O)(O)O[C@@H]1[C@H](O)[C@H](O)[C@@H](O)[C@H](O)[C@H]1O [PI, phosphatidylinositol]
lipid loading, isoelectric focusing shift and anion exchange purification (CD1b (CD1b-β2m) [2]): phospholipids are loaded into CD1b at high occupancy and purified to homogeneity

CCCCCCCC/C=C\CCCCCCCC(=O)O[C@H](COC(=O)CCCCCCCCCCCCCCC)COP(=O)(O)OC[C@H](N)C(=O)O [PS, phosphatidylserine]
X-ray crystal structure (CD1b (CD1b-β2m) [1]): structures of the PG90 TCR and the CD1b-PS and CD1b- PA complexes
